Reference: patent publication US20220370553A1, “PREBIOTIC-INDUCED ANTI-TUMOR IMMUNITY” (Sanford Burnham Prebys Medical Discovery Institute, priority 2019, published 2022)

Assays:
[1] = system: Bacteroides spp.; assay: Anaerobic fecal cultures with 1% prebiotic, 16S rDNA quantification; format: cell-based; details: fecal cultures of 12 healthy human subjects, 3-4 days at 37° C.
Procedure: Fecal samples derived from 12 healthy human subjects were cultivated in the presence or absence of 1% prebiotic. 16S rDNA sequences corresponding to Bifidobacterium, Bacteroides and Akkermansia muciniphila were quantified. Data are representative of three independent experiments. Graphs show the mean±s.e.m. *P<0.05, **P<0.005, ***P<0.001, ****P<0.0001 by one-way ANOVA with Tukey's correction.
Anaerobic fecal cultures. […] Anaerobic cultures (9% H2, 81% N2) were grown statically for 3-4 days at 37° C. and grown to approximate saturation.
Chemically-defined medium (CDM). CDM contains 50 mM HEPES, 2.2 mM KH2PO4, 10 mM Na2HPO4, 60 mM NaHCO3, 4 mM of each amino acid, except leucine (15 mM), 10 mL ATCC, Trace Mineral Supplement. CDM contained nucleoside bases (100 mg/L), inosine, xanthine, adenine, guanine, cytosine, thymidine and uracil (400 mg/L). CDM contained choline (100 mg/L), ascorbic acid (500 mg/L), lipoic acid (2 mg/L), hemin (1.2 mg/L) and myo-inositol (400 mg/L). Resazurin (1 mg/L) was added to visually monitor dissolved oxygen. The pH of the media was adjusted to 7.4.
Fecal samples derived from 12 healthy, vegetarian human subjects were cultivated in a chemically-defined medium the presence or absence of 1% prebiotic. Anaerobic cultures (9% H2, 81% N2) were grown statically for 3-4 days at 37° C. and grown to approximate saturation.

[2] = system: MC-38 mouse colorectal cancer cells; assay: Flow cytometry of tumor-infiltrating immune cells in MC-38 tumors; format: in vivo, C57BL/6 mice
Procedure: Tumor digestion. Tumors were excised, minced, and digested with 1 mg/ml collagenase D (Roche) and 100 μg/ml DNase I (Sigma) at 37° C. for 1 h. Digests were then passed through a 70-μm cell strainer to generate a single-cell suspension. The cells were washed twice with PBS containing 2 mM EDTA, and then stained for flow cytometry.
Flow cytometry. Tumor-derived single-cell suspensions were washed twice with FACS staining buffer, fixed for 15 min with 1% formaldehyde in PBS, washed twice, and resuspended in FACS staining buffer. For intracellular cytokine staining, cells were resuspended in complete RPMI-1640 (containing 10 mM HEPES, 1% non-essential amino acids and L-glutamine, 1 mM sodium pyruvate, 10% heat-inactivated fetal bovine serum (FBS), and antibiotics) supplemented with 50 U/mL IL-2 (NCI), […] brefeldin A (BFA, Sigma), and incubated with phorbol myristate acetate (10 ng/ml) and ionomycin (0.5 μg/ml) at 37° C. The cells were then fixed and permeabilized using a Cytofix/Cytoperm Kit (BD Biosciences) before staining. Antibodies to the following proteins were used: CD45.2 (104), CD8a (53-6.7), CD4 (GK1.5), CD44 (IM7), TNF-α (MP6-XT22), IFN-γ (XMG1.2), CD11c (N418), CD11b (M1/70), MHC class II (M5/114.15.2), PDCA (129c1), and B220 (RA3-6B2) from BioLegend, and antibodies to IL-2 (JES6-5H4) and MHC class I (AF6-88.5.5.3) from eBioscience. All data were collected on an LSRFortessa (BD Biosciences) and analyzed using FlowJo Software (Tree Star).
MC-38 mouse colorectal cancer cells (1×10^6) were inoculated, and diets were continued after inoculation.

[3] = system: N-Ras mutant melanoma tumor cells (MaNRAS1); assay: Growth of N-Ras mutant melanoma tumors with prebiotics with or without MEKi; format: in vivo, C57BL/6 mice; details: in the absence of MEKi; mucin 3% in water or inulin 15% in chow
Procedure: FIG. 7A C57BL/6 mice were injected (s.c.) with NRAS^Q61K mouse melanoma cells (1×10^6) (n=10). The mice were administered with either a control diet alone, or one supplemented with mucin (3%) in drinking water or inulin (15%) in chow starting 14 days prior to tumor inoculation. When tumors reached a volume of 10-20 mm^2, mice were treated with MEKi (PD325901) administered by gavage (10 mg/kg, daily), alone or in combination with inulin or mucin, as indicated. Tumor volume was assessed every 4 days. […] Data are representative of two independent experiments. Graphs show the mean±s.e.m. *P<0.05, **P<0.005, ***P<0.001, ****P<0.0001 by two-way ANOVA with Tukey's correction (A) or one-way ANOVA with Tukey's correction (B-D).
Animals and tumor models. […] Male 6-8-week-old mice were used for all experiments. […] All mice were fed an autoclaved chow diet ad libitum (LabDiet 5K67, Purina Foods). […] Mouse selection for experiments was not formally randomized or blinded. For tumor growth experiments, mice were injected subcutaneously (s.c.) with 1×10^6 tumor cells. Tumor size was measured twice a week for calculation of tumor volume. Tumors were weighed at the time of excision.
Mucin and inulin treatment. For mucin treatment, C57BL/6 mice were subjected to control or water supplemented with 3% mucin (Lee Biosolutions) prior to (14 days) and during tumor inoculation. Water was changed every other day. For inulin treatment, mice were received a diet (TD. 94048, AIN-93M, Purified Diet, ENVIGO) enriched with long-chain inulin by substituting all of sucrose and 5% of corn starch in the control diet or a modified diet (TD. 160256, Modified AIN-93M, Diet w 15% inulin, ENVIGO) prior to (14 days) and during tumor inoculation. Diets were changed 2 times a week.
Experiments were conducted to determine whether prebiotics impacted the effectiveness of MEK inhibitor (MEKi) treatment on tumor growth control and treatment resistance.

[4] = system: serum cytokines and chemokines; assay: Serum cytokine and chemokine detection (LEGENDplex); format: in vivo, mice
Source text: Graphs show the mean±s.e.m. *P<0.05, ****P<0.0001 by two-tailed t-test or Mann-Whitney U test.
Serum cytokine and chemokine detection. Cytokines and chemokines in the sera of naïve or tumor-bearing mice treated with or without mucin were quantified using the LEGENDplex™ mouse inflammation panel and mouse proinflammatory chemokine panel (BioLegend), respectively. All data were collected on an LSRFortessa (BD Biosciences) and analyzed using LEGENDplex™ software (BioLegend).
Levels of circulating cytokines and chemokines were quantified in mucin-treated mice both before and after tumor inoculation.

[5] = system: gut microbiota; format: in vivo, C57BL/6 mice; details: in the absence of MEKi
Procedure: (§1) Bacterial DNA extraction and 16S library preparation. […] Mouse fecal pellets were frozen on dry ice, and stored at −80° C. Bacterial DNA was extracted using the QIAmp Fast DNA Stool Mini Kit (Qiagen). To ensure efficient cell lysis, a 5-min bead-beating step using a Mini-Beadbeater-16 was included (Biospec Products, OK, USA). Library preparation for the Illumina MiSeq platform was performed by amplification of the V3-V4 region of the bacterial 16S ribosomal DNA gene using
(§2) C. Adapter and barcode sequences for dual indices were used as described by Illumina. PCR clean up steps were performed with QIAquick 96-PCR Clean up kit (Qiagen, Germany), and library quantification was performed using a KAPA Library Quantification Kit for Illumina platforms (KAPA Biosystems, MA, USA). An Experion Automated Gel Electrophoresis System (Bio-Rad, CA, USA) was used to measure the DNA concentration and purity of the pooled libraries. The 16S libraries were sequenced at Novagene (Beijing, China) and the SBP sequencing Core.
16S sequencing data processing. The original FASTQ files from Illumina 250 basepair paired-end sequencing of the samples were processed using a novel 16S amplicon sequencing pipeline HiMap (http://github.com/taolonglab/himap; BioRxiv 565572). The output of HiMap is Operational Strain Unit (OSU) which contains one or more bacterial strains that best match the 16S sequence and cannot be further distinguished. The percentage similarity between the 16S sequence and the aligned region of 16S rRNA genes of the strains in the OSU is indicated. OSUs mapped to the same strains are grouped together (adding read counts) if percentage similarities are within 3%. Read counts are converted into relative abundance as described in HiMap. Log 10-transformed relative abundances were used for comparisons between samples under different experimental conditions.

[6] = system: fecal microbiota; assay: 16S rRNA amplicon sequencing of fecal microbiota, YUMM1.5 melanoma model; format: in vivo, C57BL/6 mice; details: YUMM1.5 model, TABLE 3
Procedure: as §1, §2
16S sequencing data processing. […] OSUs mapped to the same strains are grouped together (adding read counts) if percentage similarities are within 3%. Read counts are converted into relative abundance as described in HiMap. […]

mucin was tested, and the “relative abundance of Bacteroides spp.” value [1] was “increased”, the “CD4+ or CD8+ T cells, CD45+ cells, cytokine production, DCs and DC subsets in tumors” value [2] was “No differences” and the “control of N-Ras mutant tumors” value [3] was “not”. The “serum levels of IL-6, IL-1a, IL-10, IL-17A and IL-23” value ([4]; following tumor inoculation (10 days), compared with control) was “reduced levels”, the “serum levels of IL-1a and CXCL13” value ([4]; mucin feeding for two weeks, prior to tumor inoculation) was “Higher levels” and the “serum levels of chemokines CXCL1 and CXCL13” value ([4]; tumor-inoculated mice (10 days), compared with control) was “Lower serum levels”. For the same substance, the “phylotype group related to Parasutterella excrementihominis” value [5] was “not observed”, the “taxa increased in relative abundance” value [5] was “primarily increased the relative abundance of taxa mapped in or near Clostridium cluster XIVa” and the taxa enriched [6] was “predominantly enriched taxa with similarity to members of Clostridium cluster XIVa”.
